Values quoted from earlier work as cited in patent US20020095197A1, “Application of photochemotherapy for the treatment of cardiac arrhythmias” (priority 2000, published 2002).

System: vascular wall (adventitia, media, intima)
Conditions: photochemotherapy with Photofrin applied; literature report (Gonschior et al. 1997)

porfimer sodium [Photofrin]
inflammatory cells in vessel wall layers following vascular trauma: presence of inflammatory cells in the adventitia (outermost layers), but not in the media or intima
